We go through 2 compounds from patent US20230147718A1, “COMPOSITION FOR CANCER PREVENTION OR TREATMENT, CONTAINING, AS ACTIVE INGREDIENT, SALVIANOLIC ACID B OR TANSHINONE I” (GJMEDI, priority 2020, published 2023).

Assay [1] has as its system AsPC-1 (pancreatic cancer). The assay can be described thus: MTT cell viability assay. It counts as cell-based, human. As to conditions: AsPC-1, cultured 24 and 48 hours, increasing concentrations; time- and dose-dependent. As to the method: (§1) To verify the efficacy of salvianolic acid B (Sigma-Aldrich) and tanshinone I (Sigma-Aldrich) on tumor cells, MTT (3-(4,5-dimethylthiazol-2-yl)-2,5-diphenyltetrazolium bromide) assay was applied to measure cell viability.
(§2) For the experiment, AsPC-1 (pancreatic cancer), HCT116 (colon cancer), and NCI-H460 (lung cancer) were used as tumor cell lines, and each tumor cell was dispensed by 1×10^3 cells/well (100 μL). After dispensing, all cells were attached to the wells for 24 hours. […] After culturing the drug-treated tumor cells for 24 and 48 hours, MTT at a concentration of 5 mg/mL was added to each tumor cell, followed by culture for 90 minutes again. Finally, the optical density (OD) of the tumor cells was measured at 540 nm using a microplate reader (Molecular Devices, USA). The analysis was performed three or more times.
(Tetrazolium assays rely on reduction of a dye to a coloured formazan, in cell work by metabolically active cells.)

Another assay has as its system HCT116 (colon cancer). The assay can be described thus: MTT cell viability assay. As to conditions: HCT116, cultured 24 and 48 hours, increasing concentrations; time- and dose-dependent. Format: cell-based, human. As to the method: as §1, §2
Another assay deals with NCI-H460 (lung cancer). The assay can be described thus: MTT cell viability assay. As to conditions: NCI-H460, cultured 24 and 48 hours, increasing concentrations; time- and dose-dependent. It counts as cell-based, human. As to the method: as §1, §2
Assay [2] deals with T1, KRAS G12V (Homo sapiens, UniProt P01116, G12V). The assay can be described thus: Isothermal titration calorimetry (ITC). As to conditions: 25° C., read-out: binding affinity KD. On the procedure:
In order to identify the affinity of salvianolic acid B or tanshinone I for the KRAS mutant KRAS G12V protein, isothermal titration calorimetry (ITC) was used. KRAS G12V protein was dialyzed using buffer [20 mM Tris-HCl (pH 7.4), 100 mM NaCl, and 2 mM MgCl2]. Next, salvianolic acid B or tanshinone I was dissolved using the same buffer, and then the prepared KRAS G12V protein and salvianolic acid B or tanshinone I were injected into an isothermal calorimeter to perform isothermal titration thermometry. Titration measurement was performed at 25° C., involved with 20 injections at an interval of 200 seconds while salvianolic acid B or tanshinone I was stirred at 1,000 rpm. ΔS was calculated from standard thermodynamic equations using the calculated K and ΔH values. Isothermal titration thermometric analysis was performed using a MicroCal AutoITC200 (GE Healthcare, Sweden), and data were analyzed using the Origin 7.0 program.
In general terms: ITC needs no label: the signal is the heat of the interaction.

In assay [3] the target is T1, KRAS G12V. The assay can be described thus: Guanine nucleotide binding assay. The arrangement: made in house; host or cells: E. coli BL21 (DE3). As to conditions: in the presence of compound, 37° C., liquid scintillation counting. On the procedure: The recombinant gene KRAS G12V was inserted into E. coli BL21 (DE3) for expression. The overexpressed protein was purified using affinity chromatography and gel filtration chromatography. Purified KRAS G12V protein was bound to Ni-NTA beads using binding buffer [50 mM Hepes (pH 7.5), 100 mM NaCl, 2 mM MgCl2, 1 mM EDTA, and 1 mM DTT] at 4° C. Ni-NTA beads bound with KRAS G12V proteins were washed with binding buffer and then reacted with radioisotope [α-^32P] GTP (2,500 cpm/pmol), GTP, and salvianolic acid B or tanshinone I at 37° C. The beads were then washed with wash buffer [20 mM Tris-HCl (pH 7.4), 100 mM NaCl, and 2 mM MgCl2]. 200 mM imidazole was used to elute the bead-bound KRAS G12V protein, and radioactive nucleotides were quantified by liquid scintillation counting.

T1 sequence (P01116 1-188 isoform P01116-2 G12V): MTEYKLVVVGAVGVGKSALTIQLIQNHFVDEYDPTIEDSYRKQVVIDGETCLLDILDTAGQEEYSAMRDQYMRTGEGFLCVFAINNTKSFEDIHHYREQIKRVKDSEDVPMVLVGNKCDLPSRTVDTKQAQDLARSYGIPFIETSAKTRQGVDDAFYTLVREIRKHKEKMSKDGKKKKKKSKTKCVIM

Turning to `Cc1coc2c1C(=O)C(=O)c1c-2ccc2c(C)cccc12` [tanshinone I], the cell viability entry (in assay [1]; with HCT116 (colon cancer); with NCI-H460 (lung cancer)) was “decrease in cell viability” in each case. In addition, at KRAS G12V [2], the Kd (commonly a measure of binding affinity in units of concentration) turned out to be 21 µM. Besides, the “activity of radioisotope [α-32P] GTP binding of KRAS G12V” value on KRAS G12V [3] was “decreased”.

In the case of `O=C(/C=C/c1ccc(O)c2c1[C@H](C(=O)O[C@H](Cc1ccc(O)c(O)c1)C(=O)O)[C@@H](c1ccc(O)c(O)c1)O2)O[C@H](Cc1ccc(O)c(O)c1)C(=O)O` [salvianolic acid B], the cell viability result (in assay [1]; with HCT116 (colon cancer); in the assay on NCI-H460 (lung cancer)) was “decrease in cell viability” throughout. The Kd at KRAS G12V [2] was found to be 32 µM. The “activity of radioisotope [α-32P] GTP binding of KRAS G12V” value on KRAS G12V [3] is “decreased”.
